Laboratory results from patent US9758561B2 (priority 2014, dated 2017).
Where two headings read alike, the source gives them in different places.

Biological target: T1, human GLP-1 receptor (Homo sapiens, UniProt P43220)
T1 construct: expressed in transfected cells; host or cells: HEK-293
Experiment: cAMP response of HEK-293 cells stably expressing human GLP-1 receptor (HTRF)
Assay type: cell-based
Details: read-out: EC50 hGLP-1R
Experimental: For preparation, cells were split into T175 culture flasks and grown overnight to near confluency in medium (DMEM/10% FBS). Medium was then removed and cells washed with PBS lacking calcium and magnesium, followed by proteinase treatment with accutase (Sigma-Aldrich cat. no. A6964). Detached cells were washed and resuspended in assay buffer (1×HBSS; 20 mM HEPES, 0.1% BSA, 2 mM IBMX) and cellular density determined. They were then diluted to 400000 cells/ml and 25 μl-aliquots dispensed into the wells of 96-well plates. For measurement, 25 μl of test compound in assay buffer was added to the wells, followed by incubation for 30 minutes at room temperature. […] Potencies of peptidic compounds at the GLP-1, glucagon and GIP receptors were determined by exposing cells expressing human glucagon receptor (hGlucagon R), human GIP receptor (hGIP-R) or human GLP-1 receptor (hGLP-1R) to the listed compounds at increasing concentrations and measuring the formed cAMP as described in Methods.

T1 sequence (P43220 24-463): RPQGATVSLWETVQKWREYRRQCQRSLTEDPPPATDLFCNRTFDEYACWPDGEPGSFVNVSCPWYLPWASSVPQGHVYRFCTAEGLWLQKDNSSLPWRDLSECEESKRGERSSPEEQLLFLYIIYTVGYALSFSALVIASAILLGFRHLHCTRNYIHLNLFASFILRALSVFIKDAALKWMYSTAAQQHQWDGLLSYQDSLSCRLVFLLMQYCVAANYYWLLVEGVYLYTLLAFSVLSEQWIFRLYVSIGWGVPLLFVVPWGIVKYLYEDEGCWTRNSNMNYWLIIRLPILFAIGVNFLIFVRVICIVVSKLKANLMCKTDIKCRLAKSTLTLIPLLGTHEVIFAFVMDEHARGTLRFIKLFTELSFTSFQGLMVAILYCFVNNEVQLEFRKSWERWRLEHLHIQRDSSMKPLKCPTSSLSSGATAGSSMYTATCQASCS

Row | Compound | EC50 (Table 6) [pM] | EC50 (Table 8, comparison Aib vs. Lys in position 27) [pM]
1 | CCCCCCCCCCCCCCCCCC(=O)N[C@@H](CCC(=O)NCCOCCOCC(=O)NCCOCCOCC(=O)NCCCC[C@H](NC(=O)[C@H](CCC(N)=O)NC(=O)[C@H](CCCCN)NC(=O)[C@H](CO)NC(=O)[C@H](CC(C)C)NC(=O)[C@H](CC(=O)O)NC(=O)[C@H](CO)NC(=O)[C@@H](NC(=O)[C@H](Cc1ccccc1)NC(=O)[C@@H](NC(=O)CNC(=O)[C@H](CCC(N)=O)NC(=O)[C@@H](CO)NC(=O)[C@@H](N)Cc1c[nH]cn1)[C@@H](C)O)[C@@H](C)O)C(=O)N[C@@H](CC(=O)O)C(=O)N[C@@H](CCC(=O)O)C(=O)N[C@@H](CCC(=O)O)C(=O)N[C@@H](C)C(=O)N[C@@H](C)C(=O)N[C@@H](CCCNC(=N)N)C(=O)N[C@@H](CC(C)C)C(=O)N[C@@H](Cc1ccccc1)C(=O)N[C@H](C(=O)N[C@@H](CCC(=O)O)C(=O)N[C@@H](Cc1c[nH]c2ccccc12)C(=O)N[C@@H](CC(C)C)C(=O)NC(C)(C)C(=O)N[C@@H](C)C(=O)NCC(=O)NCC(=O)N1CCC[C@H]1C(=O)N[C@@H](CO)C(=O)N[C@@H](CO)C(=O)NCC(=O)N[C@@H](C)C(=O)N1CCC[C@H]1C(=O)N1CCC[C@H]1C(=O)N1CCC[C@H]1C(=O)N[C@@H](CO)C(N)=O)[C@@H](C)CC)C(=O)O [SEQ ID NO: 21, H-dSer-Q-G-T-F-T-S-D-L-S-K-Q-K(AEEAc-AEEAc- E-x70)-D-E-E-A-A-R-L-F-I-E-W-L-Aib-A-G-G-P-S-S-G-A-P-P-P-S-NH2] | 1 | –
2 | CCCCCCCCCCCCCCCCCC(=O)NCCOCCOCC(=O)NCCOCCOCC(=O)NCCOCCOCC(=O)NCCCC[C@H](NC(=O)[C@H](CCC(N)=O)NC(=O)[C@H](CCCCN)NC(=O)[C@H](CO)NC(=O)[C@H](CC(C)C)NC(=O)[C@H](CC(=O)O)NC(=O)[C@H](CO)NC(=O)[C@@H](NC(=O)[C@H](Cc1ccccc1)NC(=O)[C@@H](NC(=O)CNC(=O)[C@H](CCC(N)=O)NC(=O)[C@@H](CO)NC(=O)[C@@H](N)Cc1c[nH]cn1)[C@@H](C)O)[C@@H](C)O)C(=O)N[C@@H](CC(=O)O)C(=O)N[C@@H](CCC(=O)O)C(=O)N[C@@H](CCC(=O)O)C(=O)N[C@@H](C)C(=O)N[C@@H](C)C(=O)N[C@@H](CCCNC(=N)N)C(=O)N[C@@H](CC(C)C)C(=O)N[C@@H](Cc1ccccc1)C(=O)N[C@H](C(=O)N[C@@H](CCC(=O)O)C(=O)N[C@@H](Cc1c[nH]c2ccccc12)C(=O)N[C@@H](CC(C)C)C(=O)NC(C)(C)C(=O)N[C@@H](C)C(=O)NCC(=O)NCC(=O)N1CCC[C@H]1C(=O)N[C@@H](CO)C(=O)N[C@@H](CO)C(=O)NCC(=O)N[C@@H](C)C(=O)N1CCC[C@H]1C(=O)N1CCC[C@H]1C(=O)N1CCC[C@H]1C(=O)N[C@@H](CO)C(N)=O)[C@@H](C)CC [SEQ ID NO: 22, H-dSer-Q-G-T-F-T-S-D-L-S-K-Q-K(AEEAc-AEEAc-AEEAc-x70)-D-E-E-A-A-R-L-F-I-E-W-L-Aib-A-G-G-P-S-S-G-A-P-P-P-S-NH2] | 1.8 | –
3 | CCCCCCCCCCCCCCCCCC(=O)N[C@@H](CCC(=O)NCCCC[C@H](NC(=O)[C@H](CCC(N)=O)NC(=O)[C@H](CCCCN)NC(=O)[C@H](CO)NC(=O)[C@H](CC(C)C)NC(=O)[C@H](CC(=O)O)NC(=O)[C@H](CO)NC(=O)[C@@H](NC(=O)[C@H](Cc1ccccc1)NC(=O)[C@@H](NC(=O)CNC(=O)[C@H](CCC(N)=O)NC(=O)[C@@H](CO)NC(=O)[C@@H](N)Cc1c[nH]cn1)[C@@H](C)O)[C@@H](C)O)C(=O)N[C@@H](CC(=O)O)C(=O)N[C@@H](CCC(=O)O)C(=O)N[C@@H](CCC(=O)O)C(=O)N[C@@H](C)C(=O)N[C@@H](C)C(=O)N[C@@H](CCCNC(=N)N)C(=O)N[C@@H](CC(C)C)C(=O)N[C@@H](Cc1ccccc1)C(=O)N[C@H](C(=O)N[C@@H](CCC(=O)O)C(=O)N[C@@H](Cc1c[nH]c2ccccc12)C(=O)N[C@@H](CC(C)C)C(=O)NC(C)(C)C(=O)N[C@@H](CCCCN)C(=O)N[C@H](C)C(=O)NCC(=O)N1CCC[C@H]1C(=O)N[C@@H](CO)C(=O)N[C@@H](CO)C(=O)NCC(=O)N[C@@H](C)C(=O)N1CCC[C@H]1C(=O)N1CCC[C@H]1C(=O)N1CCC[C@H]1C(=O)N[C@@H](CO)C(N)=O)[C@@H](C)CC)C(=O)O [SEQ ID NO: 25, H-dSer-Q-G-T-F-T-S-D-L-S-K-Q-K(γE-x70)-D-E-E-A-A-R-L-F-I-E-W-L-Aib-K-dAla-G-P-S-S-G-A-P-P-P-S-NH2] | 2.1 | –
4 | CCCCCCCCCCCCCCCC(=O)N[C@@H](CCC(=O)N[C@@H](CCC(=O)NCCCC[C@H](NC(=O)[C@H](CCC(N)=O)NC(=O)[C@H](CCCCN)NC(=O)[C@H](CO)NC(=O)[C@H](CC(C)C)NC(=O)[C@H](CC(=O)O)NC(=O)[C@H](CO)NC(=O)[C@@H](NC(=O)[C@H](Cc1ccccc1)NC(=O)[C@@H](NC(=O)CNC(=O)[C@H](Cc1c[nH]cn1)NC(=O)[C@@H](CO)NC(=O)[C@@H](N)Cc1c[nH]cn1)[C@@H](C)O)[C@@H](C)O)C(=O)N[C@@H](CCC(=O)O)C(=O)N[C@@H](CCC(=O)O)C(=O)N[C@@H](CCC(=O)O)C(=O)N[C@@H](C)C(=O)N[C@@H](C)C(=O)N[C@@H](CCCNC(=N)N)C(=O)N[C@@H](CC(C)C)C(=O)N[C@@H](Cc1ccccc1)C(=O)N[C@H](C(=O)N[C@@H](CCC(=O)O)C(=O)N[C@@H](Cc1c[nH]c2ccccc12)C(=O)N[C@@H](CC(C)C)C(=O)NC(C)(C)C(=O)N[C@@H](CCCCN)C(=O)N[C@H](C)C(=O)NCC(=O)N1CCC[C@H]1C(=O)N[C@@H](CO)C(=O)N[C@@H](CO)C(=O)NCC(=O)N[C@@H](C)C(=O)N1CCC[C@H]1C(=O)N1CCC[C@H]1C(=O)N1CCC[C@H]1C(=O)N[C@@H](CO)C(N)=O)[C@@H](C)CC)C(=O)O)C(=O)O [SEQ ID NO: 27, H-dSer-H-G-T-F-T-S-D-L-S-K-Q-K(γE-γE-x53)-E-E-E-A-A-R-L-F-I-E-W-L-Aib-K-dAla-G-P-S-S-G-A-P-P-P-S-NH2] | 2.1 | –
5 | CCCCCCCCCCCCCCCC(=O)N[C@@H](CCC(=O)N[C@@H](CCC(=O)NCCCC[C@H](NC(=O)[C@H](CCC(N)=O)NC(=O)[C@H](CCCCN)NC(=O)[C@H](CO)NC(=O)[C@H](CC(C)C)NC(=O)[C@H](CC(=O)O)NC(=O)[C@H](CO)NC(=O)[C@@H](NC(=O)[C@H](Cc1ccccc1)NC(=O)[C@@H](NC(=O)CNC(=O)[C@H](CCC(N)=O)NC(=O)[C@H](CO)NC(=O)[C@@H](N)Cc1c[nH]cn1)[C@@H](C)O)[C@@H](C)O)C(=O)N[C@@H](CC(=O)O)C(=O)N[C@@H](CCC(=O)O)C(=O)N[C@@H](CCC(=O)O)C(=O)N[C@@H](C)C(=O)N[C@@H](C)C(=O)N[C@@H](CCCNC(=N)N)C(=O)N[C@@H](CC(C)C)C(=O)N[C@@H](Cc1ccccc1)C(=O)N[C@H](C(=O)N[C@@H](CCC(=O)O)C(=O)N[C@@H](Cc1c[nH]c2ccccc12)C(=O)N[C@@H](CC(C)C)C(=O)N[C@@H](CCCCN)C(=O)N[C@@H](C)C(=O)NCC(=O)NCC(=O)N1CCC[C@H]1C(=O)N[C@@H](CO)C(=O)N[C@@H](CO)C(=O)NCC(=O)N[C@@H](C)C(=O)N1CCC[C@H]1C(=O)N1CCC[C@H]1C(=O)N1CCC[C@H]1C(=O)N[C@@H](CO)C(N)=O)[C@@H](C)CC)C(=O)O)C(=O)O [SEQ ID NO: 33, H-S-Q-G-T-F-T-S-D-L-S-K-Q-K(γE-γE-x53)-DEEAARLFIEWLKAGGPSSGAPPPS-NH2, reference compound] | – | 1
